What was measured:
[1] = tested on: mouse leukemia L1210 cells; experiment: Sites of photodamage (fluorescent probes); type: cell-based
Description: (ii) In vitro phototoxicity. For studies on phototoxicity involving L1210 and RIF cells, light was provided by a 600 watt quartz-halogen source filtered with 10 cm of water and a 850 nm cut-off filter to remove IR. The bandwidth was further confined to 660±5 nm by an interference filter (Oriel). Cells in suspension (L1210) or adhering to 24 mm diameter cover slips were incubated in growth medium (with 20 mM HEPES pH 7 replacing NaHCO3 for added buffering capacity) for 15 min in the presence of specified levels of sensitizers. The cells were then washed free from the sensitizer, and transferred to fresh media. Irradiations were carried out at 10° C. For some studies, the cells were then labeled with fluorescent probes and sites of photodamage were assessed. In other studies, the cells were then incubated for 60 min at 37° C. in fresh medium to allow apoptosis to proceed. Viability studies were carried out using 96-well plates and a 72-hour MTT assay, in quadruplicate.

[2] = tested on: M2R mouse melanoma cells; experiment: Phototoxicity on M2R cells (Example 11, [3H]-thymidine incorporation); type: cell-based
Description: For phototoxicity analysis cells (1×10^4 cells/well) were cultured in 96-well plates for 24 hours to an approximate density of 2×10^4 cells/well. Pigments were dissolved directly in culture medium or in ethanol 95% and further diluted in culture medium to a final concentration of 1% ethanol. The diluted pigments were added and the cells were incubated in the dark for four hours at 37° C. Prior to illumination, the cells were washed once and replaced with fresh culture medium. The plates were then illuminated from the bottom for 10 minutes at room temperature and placed in the culture incubator at 37° C. in the dark. Cell survival was determined 24 hours later. The following control systems were used: Dark control—untreated cells kept in the dark; Light control—cells not treated with sensitizer that were illuminated; Dark toxicity—cells treated with pigment but kept in the dark. Cell survival was determined by [^3H]-thymidine incorporation as described earlier (WO 97/19081). […]
(iii) Phototoxicity study: Analysis was performed with the same protocol as described above (Example 10) with the following changes: Pd-BPheid was dissolved directly in medium containing 10% serum and then added to the cells. Survival of M2R cells was determined by [^3H]-thymidine incorporation and that of human HT29 cells with the MTT assay (Merlin J L et al., 1992 Eur. J. Cancer 28A: 1452-1458).

[3] = tested on: HT29 human colon adenocarcinoma; experiment: In vivo phototoxicity on grafted HT29 tumors (tumoral index); set-up: species or system Swiss nude mice; details: for tumor growth as compared to controls / duration of decrease of tumor index: 15 mg/kg i.v., 763 nm
Description: Animal and tumor model: Solid tumor tissue (diameter 2 cm) removed from donor mouse immediately after death was mechanically crushed in 1 ml of 0.9% saline solution and the solution (0.1 ml) was injected s.c. into one hind leg of each mouse. Mice were included for experiments when the tumor diameter was 8-10 mm. Tumors were grafted s.c. in 8-week aged Swiss nude mice 10 days before experiment.
Phototoxic studies: 0.15 ml Pd-BPheid was injected i.v. at 15 mg/kg. Mice were anesthetized with thiopental at 40 mg/kg just before irradiation. At 30 min, 1 h, 4 h or 24 h after injection, mice were irradiated with a titanium sapphire laser at 300 mW/cm^2, mean diameter were measured to adjust time irradiation to obtain 200 or 300 J/cm^2. Control mice not injected with Pd-BPheid were also irradiated in same conditions. The tumor growth delay induced by PDT was analyzed by equivalence with tests realized in experimental radiotherapy. For in vivo studies and for each separate experiment, all results were the mean of 2 or 3 separate experiments and for each separate experiment, 2 mice were used for each experimental condition.
Concerning tumoral growth studies, results are expressed as tumoral index variations with reference (=1) corresponding to tumoral index from non-treated cells. The tumoral index was calculated as follows:
Tumoral index=(largest tumoral diameter+perpendicularly opposite diameter)/2.

[4] = Stability of Pd-BPheid solutions by HPLC profile; type: physicochemical
Description: A reverse phase HPLC method was developed to characterize the impurity profile and quantify the Palladium-BPheid.
Solutions of Pd-BPheid stored in acetone at −20° C. were stable for at least 2-month period.

[5] = tested on: C6 glioma tumors; experiment: In vivo PDT of C6 glioma tumors and metastasis formation; set-up: species or system CD1 nude mice; details: 5 mg/Kg i.v.; for tumor flattening (disappearance): 200 mw/cm^2 for 30 minutes
Description: (i) Materials: Pd-BPheid (prepared as in Example 1) or Pd-BPpheid-SerOMe 5 mg/kg in 20% Cremophor EL.
(ii) Light source: The light source was a Xenon fluorine LS3-PDT lamp (Bio-Spec, Russia), with 10 cm water filter and 720-850 nm light band.
(iv) Tumors: Mice were implanted with 10^6 C6 glioma cells in the foot of the hind leg. Tumors were treated when reached a length of 7-8 mm.
(vii) Protocol: Three groups (10 mice in each) were i.v. injected with 5 mg/Kg of sensitizer (Pd-BPheid or Pd-BPpheid-SerOMe) and immediately illuminated at 200 mw/cm^2, for 30 minutes, and the animals were allowed to recover in the cage. Groups 1 and 2: Animals which received PDT Pd-Bpheid and Pd-BPpheid-SerOMe, respectively. Tumor response and metastasis formation in groin were followed for 4 weeks. Group 3: Animals which were amputated at the ankle joint (paired with group 1) and metastasis formation in groin was followed for 4 weeks. The parameters of response to PDT were the percent of animals with tumor necrosis and disappearance, out of the total number of treated animals. Metatstasis was manifested by appearance of tumors in the groin or elsewhere. The endpoints considered were: follow up for 4 weeks, spontaneous death, tumors reached a diameter of 2 cm, metastasis, whichever came first.

In the case of `CC[C@H]1C2=NC(=Cc3c(C(C)=O)c(C)c4[n]3[Pd][n]3c(c(C)c5c3=C(C3=NC(=C4)[C@@H](C)[C@@H]3CCC(=O)O)[C@@H](C(=O)OC)C5=O)=C2)[C@@H]1C` [Pd-BPheid, Pd-bacteriopheophorbide a], the “photodamage to the plasma membrane or to lysosomes” value [1] is reported as “no detectable photodamage”, the site of photodamage [1] is reported as “highly specific mitochondrial photosensitizers” and the “sensitivity of M2R cells relative to HT-29 cells” value [2] is reported as “about 10 times”. The “tumor growth as compared to controls” value ([3]; 200 J/cm^2, 30 min and 4 h after injection) was “tumor growth decrease”, the “duration of decrease of tumor index” value ([3]; 200 J/cm^2, 1 h and 24 h after injection) was “up to 7 days” and the “tumor growth as compared to controls” value ([3]; 300 J/cm^2, 30 min and 24 h after injection) was “tumor growth decrease”. The “duration of decrease of tumor index” value ([3]; 300 J/cm^2, 1 h and 4 h after injection) was “up to 7 days”, the “wavelength of maximum tumor growth decrease” value ([3]; 300 J/cm^2, 1 h after injection) was 763 nm and the “duration of tumor growth decrease as compared to controls” value (“duration of tumor growth decrease” below) ([3]; 300 J/cm^2, 1 h after injection, 753 nm and 763 nm) was “up to 12 days”. For the same molecule, the “duration of tumor growth decrease” value ([3]; 300 J/cm^2, 1 h after injection, 773 nm) was “up to 5 days”, the “wavelength of maximum tumor growth decrease” value ([3]; 300 J/cm^2, 24 h after injection) was 773 nm and the “duration of tumor growth decrease” value ([3]; 300 J/cm^2, 24 h after injection, 753 nm) was “up to 4 days”. The “duration of tumor growth decrease” value ([3]; 300 J/cm^2, 24 h after injection, 763 nm and 773 nm) was “up to 12 days”, the “most efficient delay between injection and illumination” value ([3]; 773 nm wavelength) was 24 h and the “most efficient delay between injection and illumination” value ([3]; at 764 nm) was “one hour”. The “optimal wavelength of irradiation” value ([3]; summary of the study) was 773 nm, the “change in the HPLC profile” value ([4]; stock solution at room temperature for 18 hours) was “no change in the HPLC profile” and the “period for which solutions were stable” value ([4]; stored in acetone at −20° C.) was “at least 2 month”. For the same molecule, the “effect of PDT on C6 glioma tumors” value [5] was “curative”, the “tumor flattening (disappearance)” value ([5]; day 11) was 100% and the “tumor flattening (disappearance)” value ([5]; day 28) was “about 60%”. The “frequency of metastasis after PDT” value ([5]; follow up for 4 weeks) was “up to 23%”.
